According to patent US20130153815A1, “POLYMER COMPRISING A DYE, NANOPARTICLE COMPRISING THE POLYMER, AND METHODS OF PREPARING THE SAME” (Agency for Science, Technology and Research, priority 2011, published 2013):

What was measured:
[1] = NIR photoluminescence emission spectra excited with a 785 nm laser diode; assay type: physicochemical; settings: near-infrared region (800-1500 nm), excited at 785 nm
Procedure: (§1) The absorbance bands of these spectra still remain at 820 nm after chemical modification and hybridization with polymers. The colloidal stability and aggregation were tested by using UV absorbance. Dye-Pol 1 and Dye-Pol 2 were mixed with phosphate buffered saline (PBS) buffer. The absorbance bands remain the same after 3 days (FIG. 7). Similar phenomenon happened to MNP 1 and MNP 2 (FIG. 8). […] FIG. 9 and FIG. 10 show the emission spectra in the near-infrared region (800-1500 nm), excited at 785 nm. The emission spectrum of IR820dye-NH2 is 1002 nm, slightly blue-shifted from 1076 nm (IR-820). Dye-Pol 1 and Dye-Pol 2 show the emission highest peak at 956 nm while the emission of MNP 1 and MNP 2 are 864 and 866 nm, respectively. Dye-Pol 1 and Dye-Pol 2 absorb at 820 nm and emit at 956 nm. They display a large Stokes shift (136 nm).

[2] = UV absorption in methanol; assay type: physicochemical; settings: methanol solution, 0.1 mM, 25° C.
Procedure: as §1

emission highest peak [1]: 1076 nm
absorbance band [2]: 820 nm
Compound: CC1(C)C(=CC=C2CCCC(C=CC3=[N+](CCCCS(=O)(=O)[O-])c4ccc5ccccc5c4C3(C)C)=C2Cl)N(CCCCS(=O)(=O)[O-])c2ccc3ccccc3c21.[Na+] [IR-820]
